Patent US20240082296A1, “TREATMENT OF MUSCLE ATROPHY USING DEXTRAN SULFATE” (TX MEDIC AB, priority 2020, published 2024)
Marks after values point to notes of the source that are not given here.

Tested on: severe traumatic brain injury (sTBI) in rats
Experiment: HPLC of free amino acids and amino group containing compounds in rat brain after sTBI (Example 4)
Format: in vivo
Method: The effects of daily sub-cutaneous injections of dextran sulfate on glutamate excitotoxicity and mitochondrial function after severe traumatic brain injury (sTBI) in rats were evaluated by high-performance liquid chromatography (HPLC) analysis of frozen brain samples.
The experimental protocol used in this study was approved by the Ethical Committee of the Catholic University of Rome, according to international standards and guidelines for animal care. Male Wistar rats of 300-350 g body weight (b.w.) were fed with standard laboratory diet and water ad libitum in a controlled environment.
They were divided into three groups: • 1) n=6 animals subjected to sTBI, with drug administration after 30 minutes and sacrifice at 2 days post-TBI (Acute phase 1) • 2) n=6 animals subjected to severe-TBI, with drug administration after 30 minutes and sacrifice at 7 days post-TBI (Acute phase 2). • 3) n=6 animals subjected to severe-TBI, with drug administration after 3 days and sacrifice at 7 days post-TBI (Chronic phase).
As the anesthetic mixture, animals received 35 mg/kg b.w. ketamine and 0.25 mg/kg b.w. midazolam by i.p. injection. sTBI was induced by dropping a 450 g weight from 2 m height on to the rat head that had been protected by a metal disk previously fixed on the skull, according to the “weight drop” impact acceleration model (Marmarou et al., A new model of diffuse brain injury in rats. Part I: Pathophysiology and biomechanics. J Neurosurg. 1994; 80: 291-300). […] At the end of each period of treatment, rats were anesthetized again and then immediately sacrificed.
The drug treatment was a subcutaneous injection of 0.5 ml of dextran sulfate (Tikomed AB, Viken, Sweden, WO 2016/076780; 15 mg/kg) and administered according to the aforementioned schematic protocol.
An in vivo craniectomy was performed in all animals during anesthesia, after carefully removing the rat's skull, the brain was exposed and removed with a surgical spatula and quickly dropped in liquid nitrogen. After the wet weight (w.w.) determination, tissue preparation was affected as previously disclosed (Tavazzi et al., Cerebral oxidative stress and depression of energy metabolism correlate with severity of diffuse brain injury in rats. Neurosurgery. 2005; 56: 582-589; Vagnozzi et al., Temporal window of metabolic brain vulnerability to concussions: mitochondrial-related impairment-part I. Neurosurgery. 2007; 61: 379-388; Tavazzi et al., Temporal window of metabolic brain vulnerability to concussions: oxidative and nitrosative stresses-part II. Neurosurgery. 2007; 61: 390-395; Amorini et al., Severity of experimental traumatic brain injury modulates changes in concentrations of cerebral free amino acids. J Cell Mol Med. 2017; 21: 530-542.). Briefly, whole brain homogenization was performed with 7 ml of ice-cold, nitrogen-saturated, precipitating solution composed by CH3CN+10 mM KH2PO4, pH 7.40, (3:1; v:v), and using an Ultra-Turrax set at 24,000 rpm/min (Janke & Kunkel, Staufen, Germany). After centrifugation at 20,690×g, for 10 min at 4° C., the clear supernatants were saved, pellets were supplemented with 3 ml of the precipitating solution and homogenized again as described above. A second centrifugation was performed (20,690×g, for 10 min at 4° C.), pellets were saved, supernatants combined with those previously obtained, extracted by vigorous agitation with a double volume of HPLC-grade CHCl3 and centrifuged as above. The upper aqueous phases containing water-soluble low-molecular weight compounds were collected, subjected to chloroform washings for two more times (this procedure allowed the removal of all the organic solvent and of any lipid soluble compound from the buffered tissue extracts), adjusted in volumes with 10 mM KH2PO4, pH 7.40, to have ultimately aqueous 10% tissue homogenates and saved at −80° C. until assayed. […]

[1] = Acute phase 1 (15 mg/kg s.c. 30 min after sTBI, sacrifice 2 days post-TBI)
[2] = Acute phase 2 (15 mg/kg s.c. 30 min after sTBI, sacrifice 7 days post-TBI)
[3] = Chronic phase (15 mg/kg s.c. 3 days after sTBI, sacrifice 7 days post-TBI)

Substance: dextran sulfate
- cerebral ALA concentration [1]: 0.50 ± 0.12^a μmol/g (w.w.)
- cerebral ARG concentration [1]: 0.13 ± 0.02^b,d μmol/g (w.w.)
- cerebral ASN concentration [1]: 0.12 ± 0.02^i μmol/g (w.w.)
- cerebral ASP concentration [1]: 2.40 ± 0.56^d,i μmol/g (w.w.)
- cerebral CITR concentration [1]: 0.018 ± 0.004 µmol/g (w.w.)
- cerebral GABA concentration [1]: 1.43 ± 0.25^a μmol/g (w.w.)
- cerebral GLN concentration [1]: 4.78 ± 1.09^a μmol/g (w.w.)
- cerebral GLU concentration [1]: 9.81 ± 1.66^i μmol/g (w.w.)
- cerebral GLY concentration [1]: 0.83 ± 0.25^a,c μmol/g (w.w.)
- cerebral HIS concentration [1]: 0.068 ± 0.015^b μmol/g (w.w.)
- cerebral ILE concentration [1]: 0.038 ± 0.007 µmol/g (w.w.)
- cerebral L-Cystat concentration [1]: 0.185 ± 0.031^b,c,i μmol/g (w.w.)
- cerebral LEU concentration [1]: 0.021 ± 0.005^a,c μmol/g (w.w.)
- cerebral LYS concentration [1]: 0.236 ± 0.057^b,d,h μmol/g (w.w.)
- cerebral MET concentration [1]: 0.016 ± 0.005^d,j μmol/g (w.w.)
- cerebral ORN concentration [1]: 0.014 ± 0.007 µmol/g (w.w.)
- cerebral PHE concentration [1]: 0.031 ± 0.011^b,d μmol/g (w.w.)
- cerebral SAH concentration [1]: 0.033 ± 0.008^b,c,j μmol/g (w.w.)
- cerebral SER concentration [1]: 0.88 ± 0.25^a μmol/g (w.w.)
- cerebral TAU concentration [1]: 4.86 ± 0.85^b μmol/g (w.w.)
- cerebral THR concentration [1]: 0.92 ± 0.29^a μmol/g (w.w.)
- cerebral TRP concentration [1]: 0.030 ± 0.007^b,dg,i μmol/g (w.w.)
- cerebral TYR concentration [1]: 0.15 ± 0.03 µmol/g (w.w.)
- cerebral VAL concentration [1]: 0.042 ± 0.011 µmol/g (w.w.)
- cerebral ALA concentration [2]: 0.52 ± 0.24^a,e μmol/g (w.w.)
- cerebral ARG concentration [2]: 0.16 ± 0.03 µmol/g (w.w.)
- cerebral ASN concentration [2]: 0.13 ± 0.03^i μmol/g (w.w.)
- cerebral ASP concentration [2]: 2.94 ± 0.98^f,j μmol/g (w.w.)
- cerebral CITR concentration [2]: 0.018 ± 0.008 µmol/g (w.w.)
- cerebral GABA concentration [2]: 1.60 ± 0.24^a μmol/g (w.w.)
- cerebral GLN concentration [2]: 3.66 ± 0.41 µmol/g (w.w.)
- cerebral GLU concentration [2]: 9.93 ± 1.56^e,i μmol/g (w.w.)
- cerebral GLY concentration [2]: 0.71 ± 0.16^f,i μmol/g (w.w.)
- cerebral HIS concentration [2]: 0.055 ± 0.019 µmol/g (w.w.)
- cerebral ILE concentration [2]: 0.048 ± 0.017^a μmol/g (w.w.)
- cerebral L-Cystat concentration [2]: 0.173 ± 0.038^b,f,i μmol/g (w.w.)
- cerebral LEU concentration [2]: 0.018 ± 0.004 µmol/g (w.w.)
- cerebral LYS concentration [2]: 0.32 ± 0.04^a,e,i μmol/g (w.w.)
- cerebral MET concentration [2]: 0.022 ± 0.006^b,e,i μmol/g (w.w.)
- cerebral ORN concentration [2]: 0.011 ± 0.005 µmol/g (w.w.)
- cerebral PHE concentration [2]: 0.028 ± 0.010 µmol/g (w.w.)
- cerebral SAH concentration [2]: 0.026 ± 0.010^f,i μmol/g (w.w.)
- cerebral SER concentration [2]: 0.71 ± 0.28^b μmol/g (w.w.)
- cerebral TAU concentration [2]: 3.80 ± 1.19 µmol/g (w.w.)
- cerebral THR concentration [2]: 0.66 ± 0.23 µmol/g (w.w.)
- cerebral TRP concentration [2]: 0.015 ± 0.006 µmol/g (w.w.)
- cerebral TYR concentration [2]: 0.172 ± 0.046^b,f μmol/g (w.w.)
- cerebral VAL concentration [2]: 0.057 ± 0.017 µmol/g (w.w.)
- cerebral ALA concentration [3]: 0.57 ± 0.28^a,e μmol/g (w.w.)
- cerebral ARG concentration [3]: 0.14 ± 0.02 µmol/g (w.w.)
- cerebral ASN concentration [3]: 0.18 ± 0.02^a μmol/g (w.w.)
- cerebral ASP concentration [3]: 4.46 ± 0.70^a,f μmol/g (w.w.)
- cerebral CITR concentration [3]: 0.020 ± 0.006 µmol/g (w.w.)
- cerebral GABA concentration [3]: 1.85 ± 0.65^a μmol/g (w.w.)
- cerebral GLN concentration [3]: 3.98 ± 0.34 µmol/g (w.w.)
- cerebral GLU concentration [3]: 13.58 ± 1.28^a μmol/g (w.w.)
- cerebral GLY concentration [3]: 1.05 ± 0.13^a,f μmol/g (w.w.)
- cerebral HIS concentration [3]: 0.047 ± 0.021 µmol/g (w.w.)
- cerebral ILE concentration [3]: 0.041 ± 0.016^b μmol/g (w.w.)
- cerebral L-Cystat concentration [3]: 0.26 ± 0.05^a,f μmol/g (w.w.)
- cerebral LEU concentration [3]: 0.024 ± 0.032^b,f μmol/g (w.w.)
- cerebral LYS concentration [3]: 0.179 ± 0.036 µmol/g (w.w.)
- cerebral MET concentration [3]: 0.009 ± 0.004^b μmol/g (w.w.)
- cerebral ORN concentration [3]: 0.017 ± 0.009^a,e μmol/g (w.w.)
- cerebral PHE concentration [3]: 0.033 ± 0.011^b μmol/g (w.w.)
- cerebral SAH concentration [3]: 0.050 ± 0.013^a μmol/g (w.w.)
- cerebral SER concentration [3]: 0.93 ± 0.27^a,e μmol/g (w.w.)
- cerebral TAU concentration [3]: 4.49 ± 0.43^a μmol/g (w.w.)
- cerebral THR concentration [3]: 0.75 ± 0.24^a,e μmol/g (w.w.)
- cerebral TRP concentration [3]: 0.012 ± 0.007 µmol/g (w.w.)
- cerebral TYR concentration [3]: 0.21 ± 0.05^f μmol/g (w.w.)
- cerebral VAL concentration [3]: 0.040 ± 0.016^b μmol/g (w.w.)
- increase in cerebral glutamate (GLU) induced by sTBI (drug administered early post-injury (30 min following sTBI), 15 mg/kg s.c.): remarkable inhibition
- efficacy on glutamate excitotoxicity marker (drug injected at 3 days after sTBI): no efficacy
- compounds of the methyl cycle (Met, L-Cystat, SAH) (rat brain after sTBI, 15 mg/kg s.c.): significant beneficial effects
